Test results published in patent publication US8293781B2, “Indole derivatives having cPLA2 inhibiting activity and applications and production methods of the same” (Daiichi Sankyo Company, Limited, priority 2007, dated 2012).
Counter-ions that a name gives are not always drawn.

Legend:
[1] = system: PGE2 production in mouse peritoneal exudate cells; experiment: LPS-induced PGE2 production system using mouse peritoneal exudate cells; format: cell-based; conditions: LPS 10 μg/ml, 6 hours
Protocol: For evaluation of the PGE2 production inhibiting activity, the lipopolysaccharide (LPS)-induced PGE2 production system using mouse peritoneal exudate cells with reference to the method of Kim et al. (see Kim, Y K et al., Biol Pharm Bull 25: 472, 2002) was used. That is, 2 ml of thioglycolate solution (made by Sigma, Brewer's Thioglycorate medium) per mice were intraperitoneally administered to 8-week old female C3H/HeN mice (Charles River Japan). After 4 days, a phosphate buffer saline (PBS) 5 ml was used to wash the abdominal cavity and the infiltrating cells were recovered. The recovered cells were suspended in a predetermined concentration in an RPMI1640 medium (Nacalai Tesque) containing 10% bovine fetal serum (BioWhittaker) and 10 μg/ml gentamycin (Invitrogen).
The infiltrating cell suspension 100 μl containing 2×10^5 cells per well was inoculated in a 96-well culture plate, then the test compound solution or solvent 50 μl was added. Under conditions of 5% CO2 and 37° C., this was precultured for 15 minutes, then LPS (made by Sigma: L-4524) solution 50 μl (final concentration of LPS of 10 μg/ml) was added, and the mixture was cultured for a further 6 hours. After the end of the culture, the culture supernatant was recovered and the PGE2 concentration in the supernatant was measured using an EIA kit (made by Amersham). Based on the measurement value, the test compound concentration suppressing 50% of the PGE2 production at the time of non-addition of a compound (IC50 value) was calculated.

[2] = target: T1, cPLA2 crudely purified from the cytoplasm fraction of U937 (Homo sapiens, UniProt P47712); experiment: Measurement of cPLA2 inhibitory activity (release of [14C]-arachidonic acid from phosphatidyl choline liposome); format: biochemical; conditions: cPLA2 from U937 cytoplasm fraction, [14C]arachidonyl-phosphatidyl choline liposome, 37° C., 60 minutes; read-out: cPLA2 inhibitory activity, 50% inhibiting concentration IC50
T1 construct: cPLA2 crudely purified from the cytoplasm fraction of U937; endogenous in cells; host or cells: U937 cells (cytoplasm fraction, crude purification)
T1 sequence (P47712 1-749): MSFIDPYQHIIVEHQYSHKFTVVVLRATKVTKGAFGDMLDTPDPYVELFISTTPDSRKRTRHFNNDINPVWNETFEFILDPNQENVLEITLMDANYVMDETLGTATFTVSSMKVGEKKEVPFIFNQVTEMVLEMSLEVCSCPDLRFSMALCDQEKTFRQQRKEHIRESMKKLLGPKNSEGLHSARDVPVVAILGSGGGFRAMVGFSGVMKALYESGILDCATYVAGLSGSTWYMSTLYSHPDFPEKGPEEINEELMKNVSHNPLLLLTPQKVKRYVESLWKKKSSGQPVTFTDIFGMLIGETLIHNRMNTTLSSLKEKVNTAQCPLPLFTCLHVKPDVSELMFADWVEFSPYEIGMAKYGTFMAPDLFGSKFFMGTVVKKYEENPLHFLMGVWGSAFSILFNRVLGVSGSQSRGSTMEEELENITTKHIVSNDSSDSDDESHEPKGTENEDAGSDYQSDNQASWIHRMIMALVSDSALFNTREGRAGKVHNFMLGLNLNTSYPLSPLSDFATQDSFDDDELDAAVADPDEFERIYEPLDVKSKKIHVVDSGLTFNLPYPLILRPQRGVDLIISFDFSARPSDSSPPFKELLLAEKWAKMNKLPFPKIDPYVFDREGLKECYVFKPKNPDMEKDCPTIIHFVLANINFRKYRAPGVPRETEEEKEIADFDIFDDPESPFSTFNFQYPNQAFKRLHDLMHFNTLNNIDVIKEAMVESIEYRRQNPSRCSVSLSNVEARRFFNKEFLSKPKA
Outline: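 The read-out is radioactivity from extracted [14C]-arachidonic acid, freed over 60 min at 37° C from liposomes of 14C-arachidonyl phosphatidylcholine (10 μM PC in the added solution). Buffer was 50 mM HEPES pH 7.5 with Ca2+, DTT, NaCl and BSA. IC50 was derived from inhibition relative to enzyme control minus no-enzyme control.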

SMILES | IC50 [1] [nM] | IC50 [2] [nM]
O=C(O)CCc1ccc2c(c1)c(CCc1ccccc1)cn2-c1ccccc1 [Example 17, 3-[1-phenyl-3-(2-phenylethyl)-1H-indol-5-yl]propanoic acid 2-amino-2-(hydroxymethyl)propane-1,3-diol salt (1:1)] | 1320 | 38
Cc1c(CCc2ccccc2)c2cc(CCC(=O)O)ccc2n1-c1ccccc1 [Example 48, 3-[2-methyl-1-phenyl-3-(2-phenylethyl)-1H-indol-5-yl]propanoic acid] | 2490 | 126
CCOc1ccc(-n2cc(CCc3ccccc3)c3cc(CCC(=O)C(F)(F)F)ccc32)cc1 [Example 114, 4-[1-(4-ethoxyphenyl)-3-(2-phenylethyl)-1H-indol-5-yl]-1,1,1-trifluorobutan-2-one] | 2220 | 740
CCOc1ccc(-n2cc(CCc3ccccc3)c3cc(CCC(=O)NC#N)ccc32)cc1 [Example 115, N-cyano-3-[1-(4-ethoxyphenyl)-3-(2-phenylethyl)-1H-indol-5-yl]propanamide] | 300 | 61
O=C(O)CCc1ccc2c(c1)c(CCc1ccccc1)cn2-c1ccc(OCc2ccccc2)cc1 [Example 124, 3-{1-[4-(benzyloxy)phenyl]-3-(2-phenylethyl)-1H-indol-5-yl}propanoic acid 2-amino-2-(hydroxymethyl)propane-1,3-diol salt (1:1)] | 130 | 8
O=C(O)CCc1ccc2c(c1)c(CCc1ccccc1)cn2-c1cccnc1 [Example 128, 3-[3-(2-phenylethyl)-1-(3-pyridinyl)-1H-indol-5-yl]propanoic acid hydrochloride] | 6430 | 250
CN(C)c1ccc(-n2cc(CCc3ccccc3)c3cc(CCC(=O)O)ccc32)nc1 [Example 138, 3-{1-[5-(dimethylamino)-2-pyridinyl]-3-(2-phenylethyl)-1H-indol-5-yl}propanoic acid hydrochloride] | 580 | 34
O=C(O)CCc1ccc2c(c1)c(CCc1ccccc1)cn2-c1ccccc1O [Example 147, 3-[1-(2-hydroxyphenyl)-3-(2-phenylethyl)-1H-indol-5-yl]propanoic acid] | 1240 | 779
O=C(O)CCc1ccc2c(c1)c(CCc1ccccc1)cn2-c1cccc(O)c1 [Example 157, 3-[1-(3-hydroxyphenyl)-3-(2-phenylethyl)-1H-indol-5-yl]propanoic acid] | 2250 | 186
O=C(O)CCc1ccc2c(c1)c(CCc1ccccc1)cn2-c1cccc(S(=O)(=O)N2CCOCC2)c1 [Example 324, 3-{1-[3-(morpholin-4-ylsulfonyl)phenyl]-3-(2-phenylethyl)-1H-indol-5-yl}propanoic acid] | – | 1630
CS(=O)(=O)c1ccc(-n2cc(CCc3ccccc3)c3cc(CCC(=O)O)ccc32)cc1 [Example 326, 3-{1-[4-(methylsulfonyl)phenyl]-3-(2-phenylethyl)-1H-indol-5-yl}propanoic acid] | – | 486
O=C(O)CCc1ccc2c(c1)c(CCc1ccccc1)cn2-c1ccc(OCCCO)cc1 [Example 328, 3-{1-[4-(3-hydroxypropoxy)phenyl]-3-(2-phenylethyl)-1H-indol-5-yl}propanoic acid 2-amino-2-(hydroxymethyl)propane-1,3-diol salt (1:1)] | – | 57
O=C(CCc1ccc2c(c1)c(CCc1ccccc1)cn2-c1ccc(OC(F)F)cc1)C(F)(F)F [Example 329, 4-{1-[4-(difluoromethoxy)phenyl]-3-(2-phenylethyl)-1H-indol-5-yl}-1,1,1-trifluorobutan-2-one] | – | 318
O=C(CCc1ccc2c(c1)c(CCc1ccccc1)cn2-c1ccc(Oc2ccccc2)cc1)C(F)(F)F [Example 330, 1,1,1-trifluoro-4-[1-(4-phenoxyphenyl)-3-(2-phenylethyl)-1H-indol-5-yl]butan-2-one] | – | 726
CS(=O)(=O)NC(=O)CCc1ccc2c(c1)c(CCc1ccccc1)cn2-c1ccc(Oc2ccccc2)cc1 [Example 331, N-(methylsulfonyl)-3-[1-(4-phenoxyphenyl)-3-(2-phenylethyl)-1H-indol-5-yl]propanamide] | – | > 3000
O=C(CCc1ccc2c(c1)c(CCc1ccccc1)cn2-c1ccc(OC(F)F)cc1)NS(=O)(=O)c1ccccc1 [Example 332, 3-{1-[4-(difluoromethoxy)phenyl]-3-(2-phenylethyl)-1H-indol-5-yl}-N-(phenylsulfonyl)propanamide] | – | > 3000
Cc1ccc(S(=O)(=O)NC(=O)CCc2ccc3c(c2)c(CCc2ccccc2)cn3-c2ccc(Oc3ccccc3)cc2)cc1 [Example 333] | – | > 3000
CSc1ccc(-n2cc(CCc3ccccc3)c3cc(CCC(=O)O)ccc32)cc1 [Example 334, 3-[1-(4-methylthiophenyl)-3-(2-phenylethyl)-1H-indol-5-yl]propanoic acid] | – | 11
O=C(O)CCc1ccc2c(c1)c(CCc1ccccc1)cn2-c1ccc(SCc2ccccc2)cc1 [Example 335, 3-[1-(4-benzylthiophenyl)-3-(2-phenylethyl)-1H-indol-5-yl]propanoic acid] | – | 9
O=C(O)CCc1ccc2c(c1)c(CCCc1ccccc1)cn2-c1ccc(OCc2ccccc2)cc1 [Example 339, 3-{1-[4-(benzyloxy)phenyl]-3-(3-phenylpropyl)-1H-indol-5-yl}propanoic acid] | – | 460
O=C(O)CCc1ccc2c(c1)c(CCCc1ccccc1)cn2-c1ccc(O)cc1 [Example 340, 3-[1-(4-hydroxyphenyl)-3-(3-phenylpropyl)-1H-indol-5-yl]propanoic acid] | – | 568
O=C(O)CCc1ccc2c(c1)c(CCc1ccccc1)cn2-c1ccc(OCCOCc2ccccc2)cc1 [Example 342, 3-[1-{4-[2-(benzyloxy)ethoxy]phenyl}-3-(2-phenylethyl)-1H-indol-5-yl]propanoic acid] | – | 2
